Data set [1] in a line: PAMPA with and without potassium salt. It is filed as in vitro ADME. Conditions: for recovery at 10 μM / Papp at 10 µM / Papp: PAMPA; for PAMPA permeability (in words): independent of the addition of potassium salt. On the procedure: PAMPA was performed using a 96-well filter donor plate with 0.45 μm hydrophobic Immobilon-P membrane supports (Millipore MAIPNTR10) and a 96-well Teflon acceptor plate (Millipore MSSACCEPTOR). The donor plate was prepared by applying 5 μL of 1% (w/v) soybean lecithin (90%, Alfa Aesar) in n-dodecane to each filter. The acceptor plate was prepared by addition of 300 μl of pH = 7.4 phosphate-buffered saline (PBS) with 5% DMSO to each well. Donor solutions composed of PBS with 5% DMSO, 10 μM carbamazepine standard, and 10 μM compound 1, 2 or 8 were prepared with and without additional KCl (0.27 mM or 100.27 mM K^+ concentration) before addition of 150 μl to each donor well, with all conditions run in quadruplicate. The donor plate was then loaded into the acceptor plate and was left in a sealed, damp chamber at 25 °C for approximately 17 hours (exact times recorded and used in calculation of Pe). The plates were then separated, and 100 μl of solution from each well was transferred to another plate for LC-MS analysis. Permeabilities were calculated identically to a previous study.[80]
(The PAMPA barrier holds no transporters, so it reflects passive diffusion.)

Data set [2] concerns nematodes. Conditions: cited from earlier work.
Data set [3] is described as follows: Site-to-site exchange rates from EXSY peaks in EASY-ROESY. The class given is physicochemical. Conditions: for kex / k1 / k2: EASY-ROESY, mixing time 100 ms, CDCl3; for k1 / k2: site-to-site exchange rate. On the procedure:
Following ref. [76] and [77], site-to-site rates were determined in a straightforward way by taking the logarithm of matrix A = M × M0^−1 containing the volumes of cross- and diagonal peaks of the exchanging sites (Hα of Mle^2, Mle^6 and Mle^26) divided by their magnetic fraction M0 (i.e. the relative intensities of the corresponding resonances in the ^1H NMR spectrum) as an approximation of M(0): (1) M=e^Ltm×M0 (2) A=(IAA/M0AIAB/M0BIAC/M0CIBA/M0AIBB/M0BIBC/M0CICA/M0AICB/M0BICC/M0C) (3) 1/tmln(A)=(kBA+kCA−R1kABkACkBA−kAB−R10kBC0−kAC−R1)
L is the difference between the kinetic matrix K containing the site-to-site rate constants and the relaxation matrix R, tm is the mixing time used in the ROESY experiment, and Ri are the auto-relaxation rates of the exchanging sites in the symmetric (A) and asymmetric (B, C) conformations.
EXSY peak volumes extracted from the ROESY spectrum (shown schematically in Fig. 13) and the magnetic fractions in the 1H NMR spectrum are inserted in matrix A (eqn 4). Site-to-site rates are obtained by taking the logarithm of matrix A and dividing the result by the mixing time (0.1 s) (eqn 5): kAB = kAC = 0.09 s^−1 and kBA = kCA = 0.16 s^−1 (averaged rates). Calculations were carried out in Mathematica 12.0.[78] (4) A=(77.9/11.52/1.51.55/1.51.59/1236/1.50/1.51.75/10/1.5200/1.5) (5) 1/0.1ln(A)=(43.55240.090.100.1450.580.000.170.0048.9)

Data set [4] has as its system Caco-2. Also on record: method as in PMID 26067057, PMID 32121188. The note with it: cited from earlier work.
On the set-up of data set [5]: method as in PMID 26067057. Conditions: PAMPA; cited from earlier work.
Data set [6] is described as follows: Cation binding in apolar solvent (chloroform) by NMR. It is filed as physicochemical. The note with it: CDCl3; solid KSCN and sonication (1) or saturated KSCN solution in D2O, phase separation (2). On the procedure:
It is known that valinomycin, a cyclic dodecadepsipeptide, as well as some crown ethers can bind cations even in an apolar solvent.[59]–[61] This ability is an indirect evidence that the ion-bound complex may exist inside the membrane interior, i.e. that ion transport across a membrane is possible. To assess if the cyclic octadepsipeptides are also able to bind cations in an apolar solvent, KSCN was added to a solution of 1 in chloroform and sonicated for several hours.

The subject of data set [7] is mycobacteria. Details: method as in PMID 5879163. The note with it: cited from earlier work.
On the set-up of data set [8]: method as in PMID 22138252, PMID 24061379. The note with it: cited from earlier work.
Details of data set [9]: method as in PMID 22138252, PMID 24061379. Conditions: cited from earlier work. This is another data set of the same source.
In data set [10] the test system is ryanodine-binding. Also on record: method as in PMID 20057513. The note with it: cited from earlier work.
Data set [11] concerns efflux transporter P-gp. Also on record: method as in PMID 25131706. The note with it: cited from earlier work.
Setting [12] is: pH 7.4, PAMPA, + 100 mM KCl, read-out: Average Recovery Rate.
The mark [13] stands for this setting: pH 7.4, PAMPA, without additional KCl, read-out: Average Recovery Rate.
Where [14] appears, read: without additional KCl (0.27 mM K+), PBS pH 7.4 with 5% DMSO, 10 μM compound, approx. 17 hours, 25 °C, read-out: Average Permeability with standard deviation in brackets.
Where [15] appears, read: worked example, mixing time 0.1 s.

Like-named read-outs stand apart in the source and are kept apart here. Non-standard residues stand in square brackets, D forms with d. Residues, ends and D or L forms follow the SMILES beside them. dPhLac = O=C(O)[C@H](O)Cc1ccccc1; NMeL = CN[C@@H](CC(C)C)C(=O)O; dLac = C[C@@H](O)C(=O)O

Take `CC(C)C[C@H]1C(=O)O[C@H](Cc2ccccc2)C(=O)N(C)[C@@H](CC(C)C)C(=O)O[C@H](C)C(=O)N(C)N(CC(C)C)C(=O)O[C@H](Cc2ccccc2)C(=O)N(C)N(CC(C)C)C(=O)O[C@H](C)C(=O)N1C` [Bis-aza analog (8)]: the recovery at 10 μM in data set [1] (setting [12]) is 6.8%. Moreover, the recovery at 10 μM in data set [1] (setting [13]) worked out at 26.2%. For the same compound, the Papp at 10 µM in data set [1] (setting [14]) was 0.08 ×10⁻⁶ cm/s. The “PAMPA permeability (in words)” value in [1] is listed as “no permeability was detected”. The “Biological activity weaker by a factor compared to 1” value in [2] is listed as 5–10. For the same compound, in [3], the kex was found to be 0.19 s⁻¹, the k1 was determined as 0.17 s⁻¹ and the k2 amounted to 0.02 s⁻¹.
Regarding `CC(C)C[C@H]1C(=O)O[C@H](Cc2ccccc2)C(=O)N(C)[C@@H](CC(C)C)C(=O)O[C@H](C)C(=O)N(C)[C@@H](CC(C)C)C(=O)N2CCC[C@@H]2C(=O)N2CCC[C@H]2C(=O)O[C@H](C)C(=O)N1C` [compound 9] (cyclo([dLac][NMeL][dPhLac][NMeL][dLac][NMeL][dP]P)), the “Biological activity higher by a factor compared to 1” value in data set [2] is recorded as 2.
As for `CC(C)[C@H]1C(=O)O[C@H](C(C)C)C(=O)N(C)[C@@H](C(C)C)C(=O)O[C@H](C(C)C)C(=O)N(C)[C@@H](C(C)C)C(=O)O[C@H](C(C)C)C(=O)N1C` [Enniatin B, enniatin B], the “Permeability in Caco-2 permeability assay” value in [4] is 610 ×10⁻⁶ cm/s. In data set [5], the “log Pe” value is listed as −4.73.
`CC(C)CC1C(=O)OC(Cc2ccccc2)C(=O)N(C)C(CC(C)C)C(=O)OC(C)C(=O)N(C)C(CC(C)C)C(=O)OC(Cc2ccccc2)C(=O)N(C)C(CC(C)C)C(=O)OC(C)C(=O)N1C` (stereo not drawn) [PF1022A (1)]: in data set [6], the “Conformation detected in chloroform after contact with KSCN” value is “only the symmetric conformation could be detected”. The Papp in data set [1] (pH 7.4, PAMPA, + 100 mM KCl (100.27 mM K+), PBS pH 7.4 with 5% DMSO, 10 μM compound, approx. 17 hours, 25 °C, read-out: Average Permeability with standard deviation in brackets) is 0.02 ×10⁻⁶ cm/s. For the same compound, the recovery at 10 μM in data set [1] (setting [12]) was found to be 57.4%. Besides, the recovery at 10 μM in data set [1] (setting [13]) was 18.4%. In addition, the Papp in data set [1] (setting [14]) is 0.06 ×10⁻⁶ cm/s. The “PAMPA permeability (in words)” value in data set [1] is given as “no permeability was detected”. In data set [3], this compound returned a kex of 0.25 s⁻¹, a k1 of 0.16 s⁻¹ and a k2 of 0.09 s⁻¹. In addition, in data set [3] (setting [15]), the “kAB = kAC (averaged site-to-site rate)” value was determined as 0.09 s⁻¹ and the “kBA = kCA (averaged site-to-site rate)” value was 0.16 s⁻¹.
In data set [3], `CC(C)C[C@H]1C(=O)O[C@H](Cc2ccc(I)cc2)C(=O)N(C)[C@@H](CC(C)C)C(=O)O[C@H](C)C(=O)N(C)[C@@H](CC(C)C)C(=O)O[C@H](Cc2ccccc2)C(=O)N(C)[C@@H](CC(C)C)C(=O)O[C@H](C)C(=O)N1C` [Mono-iodo analog (11)] returned a kex of 0.26 s⁻¹, a k1 of 0.17 s⁻¹ and a k2 of 0.09 s⁻¹.
Consider `CC(C)C[C@H]1C(=O)O[C@H](C(C)C)C(=O)N(C)[C@@H](CC(C)C)C(=O)O[C@H](C(C)C)C(=O)N1C` [compound 4, cyclo-(N-methyl L-leucine D-hydroxyisovaleric acid)2], for which the “Activity against mycobacteria (in words)” value in data set [7] was “no activity”.
For `CC(C)C1OC(=O)C(C(C)C)N(C)C1=O` (stereo not drawn) [compound 3, 3,6-di-(propan-2-yl)-4-methyl-morpholine-2,5-dione], the “Antimicrobial activity (in words)” value in data set [8] is listed as “moderate”. In addition, the “Antioxidant activity (in words)” value in data set [9] was “moderate”.
Regarding `CCCCC[C@H]1OC(=O)[C@H](C)N(C)C(=O)[C@@H](CCCCC)OC(=O)[C@H](C)N(C)C(=O)[C@@H](CCCCC)OC(=O)[C@H](C)N(C)C(=O)[C@@H](CCCCC)OC(=O)[C@H](C)N(C)C1=O` [compound 7, verticilide], the “Ryanodine binding (in words)” value in [10] was “ryanodine-binding inhibitor”.
As for `CC(C)C[C@H]1C(=O)O[C@H](Cc2ccccc2)C(=S)N(C)[C@@H](CC(C)C)C(=O)O[C@H](C)C(=S)N(C)[C@@H](CC(C)C)C(=O)O[C@H](Cc2ccccc2)C(=S)N(C)[C@@H](CC(C)C)C(=O)O[C@H](C)C(=S)N1C` [compound 10], in [2], the “Activity increased (times) compared to 1” value is given as 2.5.
Take `NC(=O)N1c2ccccc2C=Cc2ccccc21` [Carbamazepine, carbamazepine, reference compound]: the Papp at 10 µM in [1] (pH 7.4, 10 μM standard in donor solutions, with and without 100 mM KCl, read-out: Permeability of PAMPA control) was 7.94 to 11.1 ×10⁻⁶ cm/s. For the same compound, in [1] (pH 7.4, 10 μM standard in donor solutions, with and without 100 mM KCl, read-out: Recovery rate of PAMPA control), the recovery at 10 μM is 85.4 to 200%.
For `CC(C)C[C@H]1C(=O)O[C@H](Cc2ccc(N3CCOCC3)cc2)C(=O)N(C)[C@@H](CC(C)C)C(=O)O[C@H](C)C(=O)N(C)[C@@H](CC(C)C)C(=O)O[C@H](Cc2ccc(N3CCOCC3)cc2)C(=O)N(C)[C@@H](CC(C)C)C(=O)O[C@H](C)C(=O)N1C` [Emodepside (2), reference compound], the “Conformation detected in chloroform after contact with KSCN” value in [6] is given as “the symmetric conformation is present almost exclusively”. The recovery at 10 μM in data set [1] (setting [12]) was 27.3%. Also, the recovery at 10 μM in [1] (setting [13]) amounted to 78.7%. Further, the “PAMPA permeability (in words)” value in [1] is “no permeability was detected”. Also, the “Anthelmintic activity relative to PF1022A (in words)” value in data set [2] is “increased anthelmintic activity”. Moreover, the “Substrate of the efflux transporter P-gp” value in data set [11] is listed as “substrate”. In [3], this compound displayed a kex of 0.18 s⁻¹, a k1 of 0.12 s⁻¹ and a k2 of 0.06 s⁻¹.
For the compound `CC(C)CC1C(=O)OC(Cc2ccccc2)C(=O)N(C)C(CC(C)C)C(=O)OC(C)C(=O)N(C)C(CC(C)C)C(=O)OC(Cc2ccccc2)C(=O)N(C)C(CC(C)C)C(=O)OC(C)C(=O)N1C` (single isomer, unassigned) [enantiomer of PF1022A], in [2], the “Anthelmintic activity (in words)” value is recorded as “no anthelmintic activity”.

Source of the values: paper PMC7796559, “Connecting the conformational behavior of cyclic octadepsipeptides with their ionophoric property and membrane permeability” (Organic & biomolecular chemistry, 2020).
